Experimental data taken from ChEMBL document CHEMBL4265965, “Dichloroacetophenones targeting at pyruvate dehydrogenase kinase 1 with improved selectivity and antiproliferative activity: Synthesis and structure-activity relationships” (Bioorg Med Chem Lett, 2018).
Active and inactive are the calls of the source. The rule behind the calls is not given here.

Tests used:
[1] = organism: Sus scrofa; assay: Inhibition of porcine PDK1 assessed as activation of pyruvate dehydrogenase complex at 1 uM measured after 3 mins
[2] = tested on: A549; assay: Antiproliferative activity against human A549 cells assessed as inhibition of cell proliferation at 2 uM after 72 hrs by MTT assay relative to control; type: functional; details: for inhibition at 2 µM: A549, 72 h
[3] = tested on: A549; assay: Antiproliferative activity against human A549 cells assessed as inhibition of cell proliferation at 6 uM after 72 hrs by MTT assay relative to control; type: functional; details: for inhibition at 6 µM: A549, 72 h
[4] = tested on: NCI-H1975; assay: Antiproliferative activity against human NCI-H1975 cells assessed as inhibition of cell proliferation at 12 uM after 72 hrs by MTT assay relative to control; type: functional; details: for inhibition at 12 µM: NCI-H1975, 72 h
[5] = tested on: NCI-H1650; assay: Antiproliferative activity against human NCI-H1650 cells assessed as inhibition of cell proliferation at 6 uM after 72 hrs by MTT assay relative to control; type: functional; details: for inhibition at 6 µM: NCI-H1650, 72 h
[6] = tested on: A549; assay: Antiproliferative activity against human A549 cells assessed as inhibition of cell proliferation at 12 uM after 72 hrs by MTT assay relative to control; type: functional; details: for inhibition at 12 µM: A549, 72 h
[7] = tested on: NCI-H1650; assay: Antiproliferative activity against human NCI-H1650 cells assessed as inhibition of cell proliferation at 12 uM after 72 hrs by MTT assay relative to control; type: functional; details: for inhibition at 12 µM: NCI-H1650, 72 h
[8] = target: [Pyruvate dehydrogenase (acetyl-transferring)] kinase isozyme 1, mitochondrial (Homo sapiens, UniProt Q15118); assay: Inhibition of recombinant human N-terminal His6/Sumo-tagged PDK1 (29 to 436 residues) expressed in Escherichia coli BL21 at 1 uM by kinase-glo luminescence assay relative to control
[9] = tested on: NCI-H1975; assay: Antiproliferative activity against human NCI-H1975 cells assessed as inhibition of cell proliferation at 6 uM after 72 hrs by MTT assay relative to control; type: functional; details: for inhibition at 6 µM: NCI-H1975, 72 h
[10] = tested on: NCI-H1975; assay: Antiproliferative activity against human NCI-H1975 cells assessed as inhibition of cell proliferation at 2 uM after 72 hrs by MTT assay relative to control; type: functional; details: for inhibition at 2 µM: NCI-H1975, 72 h
[11] = tested on: NCI-H1650; assay: Antiproliferative activity against human NCI-H1650 cells assessed as inhibition of cell proliferation at 2 uM after 72 hrs by MTT assay relative to control; type: functional; details: for inhibition at 2 µM: NCI-H1650, 72 h

| SMILES | inhibition [1] | inhibition [8] | inhibition at 2 µM [2] [%] | inhibition at 6 µM [3] [%] | inhibition at 12 µM [4] [%] | inhibition at 6 µM [5] [%] | inhibition at 12 µM [6] [%] | inhibition at 12 µM [7] [%] | inhibition at 6 µM [9] [%] | inhibition at 2 µM [10] [%] | inhibition at 2 µM [11] [%] | inhibition [11] | inhibition [2] | inhibition [10] | inhibition [5] | inhibition [3] | inhibition [4] | inhibition [6] | inhibition [7] | inhibition [9] |
| --- | --- | --- | --- | --- | --- | --- | --- | --- | --- | --- | --- | --- | --- | --- | --- | --- | --- | --- | --- | --- |
| O=C(c1ccncc1)C(Cl)Cl | 8.9% | inactive | 2.1 | 6.6 | 91.7 | 34.4 | 21.3 | 80.3 | 41.6 | 2.29 | 15.6 | – | – | – | – | – | – | – | – | – |
| CCCCCOc1ccc(C(=O)C(Cl)Cl)cc1[N+](=O)[O-] | Active | Active | 32.3 | 80.2 | 98.1 | 36.6 | 96.9 | 68 | 93.2 | 62.9 | – | inactive | – | – | – | – | – | – | – | – |
| CCOc1ccc(C(=O)C(Cl)Cl)cc1[N+](=O)[O-] | Active | Active | 37.8 | 88 | 98.2 | 88 | 99 | 99.3 | 94.1 | 62.3 | 57.3 | – | – | – | – | – | – | – | – | – |
| O=C(c1ccc(OCCCBr)c([N+](=O)[O-])c1)C(Cl)Cl | Active | Active | 26.8 | 84.3 | 99 | 48.1 | 97.7 | 74.6 | 94.5 | 60.8 | 11.5 | – | – | – | – | – | – | – | – | – |
| O=C(c1ccc(OCCBr)c([N+](=O)[O-])c1)C(Cl)Cl | Active | Active | 9.5 | 24.5 | 80 | – | 63.7 | 23 | 53.2 | 15.2 | – | inactive | – | – | inactive | – | – | – | – | – |
| O=C(c1cccnc1)C(Cl)(Cl)Cl | inactive | inactive | – | – | – | – | – | – | – | – | – | inactive | inactive | inactive | inactive | inactive | inactive | inactive | inactive | inactive |
| O=C(CCl)c1cccnc1 | inactive | inactive | – | – | – | – | – | – | – | – | – | inactive | inactive | inactive | inactive | inactive | inactive | inactive | inactive | inactive |
| O=C(c1ccccn1)C(Cl)Cl | 10.2% | inactive | 3.3 | 15.3 | 98.5 | 39.6 | 31.5 | 90.5 | 73.1 | 15.9 | 14.8 | – | – | – | – | – | – | – | – | – |
| O=C(Oc1ccccc1)C(Cl)Cl | inactive | inactive | – | – | – | – | – | – | – | – | – | inactive | inactive | inactive | inactive | inactive | inactive | inactive | inactive | inactive |
| O=C(c1cccs1)C(Cl)Cl | 3.9% | inactive | 6.9 | 34.7 | 95.8 | 42.5 | 71.1 | 73.4 | 62.1 | 26.8 | 16.8 | – | – | – | – | – | – | – | – | – |
| CCCCCCOc1ccc(C(=O)C(Cl)Cl)cc1[N+](=O)[O-] | Active | Active | 1.2 | 33.4 | 98.3 | 53.1 | 83.1 | 99.7 | 51.7 | 5.7 | 3.6 | – | – | – | – | – | – | – | – | – |
| CCCCc1ccc(C(=O)C(Cl)Cl)cc1[N+](=O)[O-] | – | inactive | – | 12 | 100 | 57.2 | 56.9 | 97.5 | 65.2 | 39.8 | 22.3 | – | inactive | – | – | – | – | – | – | – |
| O=C(c1ccccc1Br)C(Cl)Cl | – | inactive | 1.4 | 6.1 | 49.5 | – | 17.5 | 0.4 | 14.3 | – | – | inactive | – | inactive | inactive | – | – | – | – | – |
| CCCc1ccc(C(=O)C(Cl)Cl)cc1[N+](=O)[O-] | – | inactive | – | 8.9 | 99.8 | 60.2 | 65.2 | 99.8 | 69.5 | 31.5 | 29.8 | – | inactive | – | – | – | – | – | – | – |

Second part, led by results:

| inhibition [1] | inhibition [8] | SMILES | inhibition at 2 µM [2] [%] | inhibition at 6 µM [3] [%] | inhibition at 12 µM [4] [%] | inhibition at 6 µM [5] [%] | inhibition at 12 µM [6] [%] | inhibition at 12 µM [7] [%] | inhibition at 6 µM [9] [%] | inhibition at 2 µM [10] [%] | inhibition at 2 µM [11] [%] | inhibition [11] | inhibition [2] | inhibition [10] | inhibition [5] | inhibition [3] | inhibition [4] | inhibition [6] | inhibition [7] | inhibition [9] |
| --- | --- | --- | --- | --- | --- | --- | --- | --- | --- | --- | --- | --- | --- | --- | --- | --- | --- | --- | --- | --- |
| inactive | inactive | Cc1ccccc1NC(=O)C(Cl)Cl | – | 9.9 | 22.9 | 14.5 | 13.2 | 15.4 | 19.5 | – | – | inactive | inactive | inactive | – | – | – | – | – | – |
| – | 50.5% | Cc1ccc(C(=O)C(Cl)Cl)cc1[N+](=O)[O-] | 12.6 | 67.8 | 99.7 | 69.8 | 89.5 | 94.6 | 89.5 | 15.8 | 15.4 | – | – | – | – | – | – | – | – | – |
| – | inactive | O=C(c1ccccc1C(F)(F)F)C(Cl)Cl | 3 | 9 | 10.2 | 12.7 | 8.3 | 16.7 | 2.1 | – | 8.1 | – | – | inactive | – | – | – | – | – | – |
| Active | Active | O=C(c1ccc(OCc2ccccc2)c([N+](=O)[O-])c1)C(Cl)Cl | 29.9 | 87.9 | 99 | 29.9 | 99.3 | 67.3 | 98.6 | 58.4 | – | inactive | – | – | – | – | – | – | – | – |
| – | inactive | O=C(c1ccccc1[N+](=O)[O-])C(Cl)Cl | 1.9 | 4.4 | 93.7 | 22.4 | 6.1 | 49.9 | 61.5 | 4.8 | – | inactive | – | – | – | – | – | – | – | – |
| – | 19.7 to 67.9% | CCOc1ccc(C(=O)C(Cl)Cl)cc1 | 18.9 | 31.6 | 98.6 | 50.4 | 80.9 | 90.2 | 89 | 22.6 | 22.3 | – | – | – | – | – | – | – | – | – |
| – | 10.2% | Cc1cc(C(=O)C(Cl)Cl)ccc1Cl | 13.2 | 51.7 | 99.2 | 79.7 | 81 | 98.8 | 97.8 | 46.7 | 38.8 | – | – | – | – | – | – | – | – | – |
| – | 19.7 to 67.9% | COc1ccc(C(=O)C(Cl)Cl)cc1 | 7.5 | 50.1 | 98.3 | 56.8 | 86.1 | 84.9 | 95.8 | 35.1 | 32.5 | – | – | – | – | – | – | – | – | – |
| – | 41.7% | O=C(c1ccc(Cl)c([N+](=O)[O-])c1)C(Cl)Cl | 34.7 | 86.7 | 100 | 100 | 99.8 | 100 | 99.8 | 98.4 | 96.3 | – | – | – | – | – | – | – | – | – |
| – | inactive | O=C(c1ccc(Cl)c(Cl)c1)C(Cl)Cl | 42.1 | 74.5 | 98.4 | 92.7 | 96.7 | 100 | 95.8 | 74.1 | 54 | – | – | – | – | – | – | – | – | – |
